Measured values as given in patent US6339073B1, “Uses of nicotinamide adenine dinucleotide and its derivatives for treatment of malignant and infectious diseases” (Oxigene, Inc., priority 1997, dated 2002).
pIC50: −log10 of the molar value.

How the values were obtained:
[1] = system: HL60 (human promyeloid leukemia line) cells; assay: Measurement of in vitro cytotoxicity by apoptosis; type: cell-based
Protocol: Cell culture. HL60 (human promyeloid leukemia line) cells were cultured at a density of 0.5×106 to 1.0×10^6 cells/ml in RPMI medium supplemented with 10% fetal calf serum (FCS) at 37° C. in a 5% CO2 atmosphere. The cells were harvested by centrifugation and resuspended in fresh medium at a concentration of 1×106 to 2×10^6 cells/ml for bioassay purposes.
Measurement of in vitro cytotoxicity by apoptosis. HL60 cells were exposed in culture to 2 Gy radiation, 100 μM nMCA (neutral metoclopramide, Neu-Sensamide), 0-5000 μM NAD±10 mM, and±NADase inhibitor, 3-acetyl pyridine adenine dinucleotide, given 30 minutes before drug treatment. The % apoptosis was determined after 6 hours. The cytotoxicity was evaluated by morphological identification of apoptotic cells (400 ×magnification with phase contrast microscopy) using trypan blue exclusion (0.1% isotonic solution+5% serum) after 5 minutes incubation at room temperature. Apoptotic cells were identified as having chromatin condensation, shrinkage, membrane blebbing, fragmentation and appearance of “apoptotic bodies” (Kaufman et al, Cancer Res. 53:3976-3985, 1993).

HL60 cells = assay: cells
Protocol: Assessment of cytotoxicity in HL60 and K562 cells by clonogenic assay. The assay used is based on Schweitzer et al (Exper. Hematol. 21: 573-578, 1993). HL60 or K562 cells were cultured in 96-well microplates, at 800 cells per well, in a medium of 0.6% methyl cellulose (Methocel A4M, Dow Chemicals, USA), 10% fetal calf serum, RPMI 1640 (Life Technologies Ltd, UK), and gentamycin (50 μg/ml, Biological Industries, Israel). Microculture wells received 10 μl of NAD, NADP, NADH, ADP-ribose, nicotinamide (NAM), or 3-acetyl pyridine adenine dinucleotide solutions within which the final concentrations were adjusted to be between 0-5000 μM after addition of 190 μl cell-containing medium. Final methyl cellulose concentration was 0.6%. […] In the case of the radiosensitization experiments, the cells were irradiated with 1-2 Gy gamma radiation 15 minutes before addition of NAD. The central area of the bottom of each well (25% of total) was counted, and the counts of colonies and clusters expressed as % of control in order to avoid influences from inter-experimental baseline variations.

K562 leukemic cells = type: cell-based
Description: Final methyl cellulose concentration was 0.6%.

[2] = system: human lung adenocarcinoma (H2981) xenograft; assay: Evaluation of antitumor activity of NAD in vivo; design: species or system Scid mice; settings: NAD i.p. 25 or 50 mg/kg, 21 days
Protocol: Evaluation of antitumor activity of NAD in vivo. Scid mice (n=10 per group) were transplanted by subcutaneous injection of H-2981 (human adenocarcinoma) tumor tissue suspension in the right flank. When the tumors grew to 80-100 mm2, the animals were divided into three groups: Group 1 was injected i.p. with saline, Group 2 was injected i.p. with NAD at 25 mg/kg dissolved in saline, and Group 3 was injected i.p. with NAD at 50 mg/kg. The treatment schedule was daily Monday through Friday with no treatment Saturday and Sunday for 21 days. Tumor volumes were recorded every other day for 21 days and converted to AUC tumor growth values as previously described in detail (Hua et al, Anti-Cancer Drugs 6: 451-455, 1995).

Structure (SMILES)	clonogenic cytotoxicity (number of colonies) (HL60 cells)	clonogenic cytotoxicity (number of colonies) (K562 leukemic cells)	also measured
CC(=O)c1ccc[n+]([C@@H]2O[C@H](COP(=O)([O-])OP(=O)(O)OC[C@H]3O[C@@H](n4cnc5c(N)ncnc54)[C@H](O)[C@@H]3O)[C@@H](O)[C@H]2O)c1 [3-acetyl pyridine adenine dinucleotide, reference compound]	can nonetheless show cytotoxicity	can nonetheless show cytotoxicity	induction of apoptosis ([1]; % apoptosis after 6 hours, without NADase inhibitor): cannot induce cytoxicity by apoptosis
Nc1ncnc2c1ncn2[C@@H]1O[C@H](COP(=O)(O)OP(=O)(O)OC[C@H]2OC(O)[C@H](O)[C@@H]2O)[C@@H](O)[C@H]1O (some centres unmarked) [ADP-ribose]	equally effective at inducing cytotoxicity	the same	
NC(=O)c1ccc[n+]([C@@H]2O[C@H](COP(=O)([O-])OP(=O)(O)OC[C@H]3O[C@@H](n4cnc5c(N)ncnc54)[C@H](O)[C@@H]3O)[C@@H](O)[C@H]2O)c1 [NAD, nicotinamide adenine dinucleotide]		the same	body weight loss or acute symptoms [2]: no significant body weight loss or acute symptoms; pIC50 (HL60 cells; Homo sapiens, HL-60, 144 h, read-out: Doses that result in >50% inhibition of clonogenicity): > 3.30
NC(=O)C1=CN([C@@H]2O[C@H](COP(=O)(O)OP(=O)(O)OC[C@H]3O[C@@H](n4cnc5c(N)ncnc54)[C@H](O)[C@@H]3O)[C@@H](O)[C@H]2O)C=CC1 [NADH]	equally effective at inducing cytotoxicity		
NC(=O)c1cccnc1 [Nicotinamide, nicotinamide]	little to no effect on clonogenicity		
CCN(CC)CCNC(=O)c1cc(Cl)c(N)cc1OC [nMCA, neutral metoclopramide]			effect of NADase inhibitor on drug induced apoptosis ([1]; 10 mM 3-acetyl pyridine adenine dinucleotide given 30 minutes before drug, 6 hours): unaffected by the presence of the NADase inhibitor
